# Source: the SangsterLogP compilation
# Test: method code SF-GLC,AS, from DOI: 10.1021/jf60192a013, PMID: 4840568
row,SMILES,logP
1,COP(N)(=O)SC (configuration not stated),-0.66
2,COP(=O)(NC(C)(C)C)SC (configuration not stated),0.96
3,CCC(C)NP(=O)(OC)SC (configuration not stated),0.95
4,CNP(=O)(OC)SC (configuration not stated),-0.07
5,CCCNP(=O)(OC)SC (configuration not stated),0.65
6,CCCCCCCCNP(=O)(OC)SC (configuration not stated),1.51
7,CCOP(N)(=O)SCC (configuration not stated),0.15
8,CCCCCCNP(=O)(OC)SC (configuration not stated),1.11
9,CCNP(=O)(OC)SC (configuration not stated),0.07
10,COP(=O)(NCC(C)C)SC (configuration not stated),0.97
11,CCCOP(N)(=O)SCCC (configuration not stated),1.23
12,CCCCNP(=O)(OC)SC (configuration not stated),0.94
